Measured values: US7858806B2, “Crystal form of 5-hydroxy-1-methylhydantoin” (Nippon Zoki Pharmaceutical Co., Ltd., priority 2002, dated 2010)
Entries after “also recorded” stand apart in the source; their conditions may differ.

Experiments:
Format in all cases: physicochemical
[1] = Measurement of bulk density (graduated cylinder, before and after tight packing); conditions: 40 g in graduated cylinder; for Bulk Density After Tight Packing: after patting until volume unchanged
Experimental: Each 40 g of the I-form crystals produced in Reference Example 1 and the II-form crystals produced in Example 2 were placed in a graduated cylinder to measure the volume whereby bulk density was calculated. After that, each graduated cylinder was lightly patted by hand under the same condition until the volume of the dry powder became unchanged so that the crystals were tightly packed. The volume after the tight packing was measured and bulk density was calculated.

[2] = Solubility in water
[3] = Adhesion onto solid surface during handling; conditions: II-form compared with I-form crystals, after various handlings
Experimental: In addition, in the II-form crystals of the present invention, the bulk density is higher than in the I-form crystals and the volume for the same weight is small whereby it is now possible to manufacture small tablets and so to provide the tablets which are easily administered to patients. The advantage of high bulk density is also advantageous in terms of storage and handling when production is conducted in an industrial scale. Further, it has been found after various handlings of both II-form crystals and I-form crystals that adhesion onto the solid surface such as glass wall is lower in the II-form crystals than in the I-form crystals. Accordingly, in the case of the II-form crystals, loss during the manufacture can be reduced and labor such as cleaning and checking for removal of adhered things to the manufacturing devices and apparatuses can be reduced as well.

[4] = Stability of the crystal form

CN1C(=O)NC(=O)C1O (stereo not shown) [I-form crystals, 5-hydroxy-1-methylimidazolidin-2,4-dione, reference compound]
Bulk Density After Tight Packing ([1]; listed as I-form Crystals): 0.46 g/mL
Bulk Density Before Tight Packing ([1]; listed as I-form Crystals): 0.35 g/mL

CN1C(=O)NC(=O)C1O (stereo not shown) [5-hydroxy-1-methylhydantoin, 5-hydroxy-1-methylimidazolidin-2,4-dione]
solubility in water [2]: very highly soluble in water; also recorded: very easily soluble in water

CN1C(=O)NC(=O)C1O (stereo not shown) [II-form crystals, 5-hydroxy-1-methylimidazolidin-2,4-dione]
Bulk Density After Tight Packing ([1]; listed as II-form Crystals): 0.64 g/mL
Bulk Density Before Tight Packing ([1]; listed as II-form Crystals): 0.54 g/mL
adhesion onto the solid surface such as glass wall [3]: lower
stability [4]: sufficient stability
